Test results reported in patent US6787672B2, “Substituted chalcones as therapeutic compounds” (Cancer Research Technology Limited, priority 2000, dated 2004).
Where two headings read alike, the source gives them in different places.

What was measured:
splenocytes = assay: Splenocyte anti-proliferation assay (Con A stimulated, tritiated thymidine); format: cell-based; conditions: FIG. 1, triplicate
From the text: The anti-inflammatory effects of Compound II (DMU-120) were examined (in triplicate) using a splenocyte anti-proliferation assay.
The splenocyte anti-proliferation assay has been developed to identify compounds that have useful anti-inflammatory properties for the treatment of auto-inflammatory diseases such as rheumatoid arthritis. See, for example, Yamashita et al., 1994. This well known assay is described in detail in, for example, Mosmann, 1983. In this assay, splenocyte proliferation is stimulated by the inflammatory response inducer conconavilin A (Con A). Cell proliferation is monitored by detecting radiation (counts per minute, cpm) from a radio label (tritiated thymidine) which is incorporated only into proliferating cells.
The compound was assayed as a solution in dimethylsulfoxide (DMSO) as solvent. The solvent control is also shown for comparison. Other controls are also shown. “ConA” denotes the signal (cpm) detected for a control where cell proliferation is stimulated by ConA in the absence of a test compound. “Med” denotes the signal (cpm) detected for the cell culture medium alone. “Bkg” denotes the background radiation level (cpm).

[1] = tested on: lung cancer cell line A-549; assay: MTT assay, tumour cell growth inhibition, lung A-549; format: cell-based, human; conditions: for IC50: Homo sapiens, A549, Lung A-549, MTT, 96 h, read-out: IC50, dose required for 50% inhibition of tumour cell growth
From the text: (§1) The human tumour cell lines were the breast cancer cell line MCF-7, the colon cancer cell line HCT-116, and the lung cancer cell line A-549. The MTT assay was used, which exploits the ability of living cells to metabolise the water soluble tetrazolium salt 3-[4,5-dimethylthiazol-2yl-2,5-diphenyl tetrazolium bromide (MTT) into a water insoluble formazan precipitate (Carmichael et al, 1987). The purple precipitate can then be dissolved in an organic solvent and the optical density determined as a measure of cell survival. Compounds were tested concurrently for a true comparison.
(§2) The compound under study was dissolved in DMSO to yield a 10 mM stock solution. […] Cells were seeded into sterile flat-bottomed 96-well plates at a known initial seeding density (MCF-7 1.5×10E3, HCT-116 1×10E3, A549 2×10E3). The cells were plated in RPMI 1640 medium supplemented with 10% heat-inactivated Foetal Calf Serum solution. The plates were then incubated for 24 h at 37° C., 5% CO2 to allow cell adherence. 20 μl of the appropriate drug dilution (from serial dilutions in medium from 10 mM stock) was added to the wells (to give a final well volume of 200 μl). Plates were returned to the incubator for 96 h, and then 50 μl of MTT was added to each well. After a further 4 h incubation, the medium and any unconverted MTT was aspirated from the wells and the formazan precipitate dissolved by the addition of 100 μl of DMSO and several minutes agitation. The absorbance at A450 was then recorded on a plate reader, and the results expressed as a % survival of DMSO treated controls.

CYP1B1 enzyme = target: T1, CYP1B1 enzyme (Homo sapiens, UniProt Q16678); assay: Metabolism by microsomal preparation of human tumour tissue expressing CYP1B1, HPLC; format: in vitro ADME; conditions: human tumour microsomes, NADPH, 1 h, 37° C., pH 7.6
T1 construct: A microsomal preparation of human tumour tissue expressing the CYP1B1 enzyme was prepared; from tissue; host or cells: human tumour tissue (microsomal preparation)
T1 sequence (Q16678 1-543): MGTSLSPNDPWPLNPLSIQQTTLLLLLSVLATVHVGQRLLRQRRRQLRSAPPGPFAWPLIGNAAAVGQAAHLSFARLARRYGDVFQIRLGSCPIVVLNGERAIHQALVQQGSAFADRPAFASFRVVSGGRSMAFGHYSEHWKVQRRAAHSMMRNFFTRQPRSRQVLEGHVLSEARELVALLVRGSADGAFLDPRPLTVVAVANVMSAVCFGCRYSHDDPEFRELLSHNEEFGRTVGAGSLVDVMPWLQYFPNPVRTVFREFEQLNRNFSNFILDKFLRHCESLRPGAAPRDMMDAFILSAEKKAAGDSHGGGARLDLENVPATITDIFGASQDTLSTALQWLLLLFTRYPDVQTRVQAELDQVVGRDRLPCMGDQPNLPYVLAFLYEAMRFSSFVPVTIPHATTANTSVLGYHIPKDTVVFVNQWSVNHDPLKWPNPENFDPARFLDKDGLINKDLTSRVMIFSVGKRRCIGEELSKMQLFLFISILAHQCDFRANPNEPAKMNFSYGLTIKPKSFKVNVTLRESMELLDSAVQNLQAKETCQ
Protocol: A microsomal preparation of human tumour tissue expressing the CYP1B1 enzyme was prepared essentially as described by the method of Barrie et al., 1989. The experiment was carried out at 37° C., under yellow light. An array of 1.5 ml centrifuge tubes were set up in a water bath shaker-under aerobic conditions. To each tube was then added 500 μl of pH 7.6 buffer (0.1 M NaK2PO4), followed by NADPH (5 μl of a 25 mM stock solution). The microsomal preparation (80 μl) was then added and the tubes preincubated for 5 min at 37° C.
The prodrug substrate, compound II, was then added (10 μl of a 5 mM stock solution) and incubated for 1 h at 37° C. After 1 h the tubes were transferred to an ice/water cooling bath (0° C.). The tubes were then centrifuged at 15,000 rpm for 30 min. A sample of the supernatant (100 μl) was then taken and analysed by HPLC. HPLC conditions: Spherisorb C18 (25 cm×4.6 mm id), used without guard column. Flow rate 1 ml/min. Eluent 75% 0.1 M KH2PO4 and 25% acetonitrile.
The hydroxylated metabolite, compound III, was detected by HPLC, and confirmed by comparison with the authentic hydroxylated synthetic compound III.

[2] = tested on: breast cancer cell line MCF-7; assay: MTT assay, tumour cell growth inhibition, breast MCF-7; format: cell-based, human; conditions: for IC50: Homo sapiens, MCF7, Breast MCF-7, MTT, 96 h, read-out: IC50, dose required for 50% inhibition of tumour cell growth
From the text: as §1, §2

[3] = tested on: colon cancer cell line HCT-116; assay: MTT assay, tumour cell growth inhibition, colon HCT-116; format: cell-based, human; conditions: for IC50: Homo sapiens, Colon HCT-116, MTT, 96 h
From the text: as §1, §2

[4] = read-out: IC50, dose required for 50% inhibition of tumour cell growth

Row | SMILES | Concentration showing anti-inflammatory effects on splenocyte proliferation (splenocytes) | melting point | IC50 [1] | Selectivity Factor (Prodrug/Metabolite) ([1]; Lung A-549, IC50 Compound II / IC50 Compound III) | Metabolic conversion by CYP1B1 (aromatic hydroxylation) (CYP1B1 enzyme) | Selectivity Factor (Prodrug/Metabolite) ([2]; Breast MCF-7, IC50 Compound II / IC50 Compound III) | IC50 [2] | Selectivity Factor (Prodrug/Metabolite) ([3]; Colon HCT-116, IC50 Compound II / IC50 Compound III) | IC50 [3, 4] | IC50 ([3]; read-out: IC50 against colon tumour cell line HCT-116, restated in nM)
1 | COc1ccc(/C=C/C(=O)c2cc(OC)cc(OC)c2)cc1 [Compound II, (E)-1-(4-Methoxyphenyl)-3-(3,5-dimethoxyphenyl)prop-1-en-3-one] | less than 10 μM | 87 to 88 °C | 6600 nM | 80 | converted to the hydroxylated metabolite compound III | 1100 | 690 nM | 15000 | 1200 nM | –
2 | COc1cc(OC)cc(C(=O)/C=C/c2ccc(OC)c(O)c2)c1 [Compound III, (E)-1-(3-Hydroxy-4-methoxyphenyl)-3-(3,5-dimethoxyphenyl)prop-1-en-3-one] | – | 129 °C | 80 nM | – | – | – | 0.65 nM | – | 0.08 nM | 0.08 nM
3 | COc1cc(OC)cc(C(=O)/C=C/c2ccc(OC)cc2OC)c1 [Compound IV, (E)-1-(2,4-dimethoxyphenyl)-3-(3,5-dimethoxyphenyl)prop-1-en-3-one] | – | – | – | – | – | – | 0.1 nM | – | – | –
